Format in all cases: cell-based
Test [1] deals with primary cultures of rat hippocampus neurons. Kind of test: Neuronal exocytosis of [3H]-L-glutamate. The settings on record: 1 mM peptide alone, 1 hour at 37° C; depolarization with 75 mM KCl and 2 mM CaCl2; FIG. 4. The method, then: To determine if the enkephalin-derived peptides inhibit the neuronal exocytosis of neurotransmitters, their activity on the release of the neurotransmitter L-glutamate from primary cultures of rat hippocampus neurons was monitored. The exocytosis of this neurotransmitter in neuronal cultures can be achieved by means of the […] depolarization of the cells. The primary cultures of rat embryo hippocampus are prepared by means of conventional methods [Blanes-Mira, C., Merino, J. M., Valera, E., Fernandez-Ballester, G., Gutierrez, L. M., Viniegra, S., Pérez-Payá, E. and Ferrer-Montiel, A. Small peptides patterned after the N-terminus domain of SNAP25 inhibit SNARE complex assembly and regulated exocytosis. J. Neurochem. 88, 124-135] and are maintained in culture for 14 days in an incubator at 37° C. and 5% CO2. The cultures are incubated with [^3H]-L-glutamine to load them with [^3H]-L-glutamate for 3 hours at 37° C. The excess [^3H]-L-glutamine is then washed and they are incubated with 1 mM of the peptides to be studied for 1 hour at 37° C. The release of [^3H]-L-glutamate is carried out by means of depolarization with 75 mM KCl and 2 mM CaCl2 buffered in physiological buffer for 10 minutes at 37° C. The culture medium is collected and the amount of [^3H]-L-glutamate is quantified in a beta radioactivity counter. The results are standardized with respect to the release of [^3H]-L-glutamate in the absence of the peptide and are corrected with respect to the baseline release in the absence of calcium. […] The incubation with the enkephalin-derived peptide defined by SEQ ID NO: 6 caused a 4% inhibition.
In order to determine if the activity of enkephalin-derived peptides is additive and/or synergistic with the exocytosis inhibiting peptide Argireline®, defined by SEQ ID NO: 5, the potency of both peptides for separately and jointly inhibiting the electrically evoked release of [^3H]-L-glutamate in the presence of Ca^2+ was compared. […]

Test [2] deals with neurons in primary cultures of rat dorsal root ganglia. The test is described as follows: Neuronal excitability, electrically evoked action potentials (40 mV depolarizing stimulus), patch clamp current-clamp. The following applies: 1 mM peptide. The protocol: (§1) The activity of the enkephalin-derived peptide defined by SEQ ID NO: 7 (Tyr-D-Ala-Gly-Phe-Leu) on the excitability of neurons was studied in primary cultures of rat dorsal root ganglia. These neurons were extracted following widely known methods [Nicol, G. D., Lopshire, J. C. and Pafford, C. M. (1997) Tumor necrosis factor enhances the capsaicin sensitivity of rat sensory neurons. J. Neurosci. 17, 975-982]. The neurons were cultured in a DMEM medium supplemented with 10% bovine serum, 5% horse serum and 50 ng/mL NGF for 2 days and the electrical activity was followed by means of a patch clamp technique with a conventional electrophysiology equipment in the current-clamp configuration [Hille, B. (2001) Ion channels of excitable membranes. Third Ed. Sinauer Associates, Inc]. Two neuron stimulation protocols were used to determine the inhibitory effect of the enkephalin-derived peptide defined by SEQ ID NO: 7.
Secondly, the effect of the enkephalin-derived peptide defined by SEQ ID NO: 7 on electrically evoked neuronal activity was evaluated. To that end, the neurons were excited with a depolarizing electrical stimulus of 40 mV from their rest potential. As a result, the repetitive action potentials were triggered throughout the electrical stimulation time (FIG. 2). […]

The test system is the same in test [3]. The test is described as follows: Neuronal excitability, action potentials evoked by chemical stimulus (pH 6.0), patch clamp current-clamp. The following applies: 1 mM peptide. The method, then: as §1
The neurons were first stimulated by means of a chemical stimulus such as the exposure to a buffered solution at pH 6.0. In these conditions, acid-dependent channels depolarizing the neuronal membrane are activated, triggering action potentials (FIG. 1). […] The inhibition of neuronal excitability caused by the enkephalin-derived peptide defined by SEQ ID NO: 7 is reversible as shown by the recovery of said excitability after eliminating the peptide from the extracellular medium. […]
In general terms: In patch-clamp work, channel activity is measured electrically.

Non-standard residues stand in square brackets, D forms with d. No end group written: not given here.

As to “Argireline®: exocytosis inhibiting peptide, acetyl hexapeptide-8 marketed by Lipotec, residues 12 to 17 of protein SNAP-25 (Ac-EEMQRR-NH2; listed as Homo sapiens) [reference compound]”, the “inhibition of exocytosis of [3H]-L-glutamate” value (“inhibition … [3H]-L-glutamate” below) in test [1] was determined as 18%.
Turning to “Tyr-D-Ala-Gly-Phe-Leu (Y[dA]GFL; listed as Homo sapiens) [SEQ ID NO: 7, enkephalin-derived peptide]”, the “inhibition … [3H]-L-glutamate” value in test [1] was 12%. Besides, the “reversibility of the inhibition of electrically evoked action potentials” value in test [2] (after washing) was “partially reversible”. For the same substance, the “effect on electrically evoked action potentials” value in test [2] (depolarizing electrical stimulus of 40 mV from rest potential, FIG. 2) was “decrease in the frequency and amplitude of the action potentials”. Also, the “effect on action potentials evoked by exposure to acidic extracellular medium” value in test [3] (buffered solution at pH 6.0, FIG. 1) was “inhibition of the action potentials”. In addition, the “reversibility of the inhibition of neuronal excitability after eliminating the peptide” value in test [3] (pH 6.0 stimulus, after washing) is reported as “reversible”.
Turning to “Tyr-Gly-Phe-Leu (YGFL; printed: Tyr-Gly-Phe-Leu) [SEQ ID NO: 6, enkephalin-derived peptide]”, the “inhibition … [3H]-L-glutamate” value in test [1] amounted to 4%.
